Experimental data published in patent publication US11066414B2, “Cot modulators and methods of use thereof” (Gilead Sciences, Inc., priority 2015, dated 2021).
pEC50, pIC50: −log10 of the molar value. Where two headings read alike, the source gives them in different places.

Tests used:
TNFα = experiment: Cot Monocyte TNFα Cell Based Assay
Human Cot = Human Cot (Homo sapiens (Human), UniProt P41279); experiment: High Throughput Cot Biochemical Assay
[1] = Homo sapiens, Monocyte, read-out: EC50 TNF, LPS-stimulated human monocytes, TNFα TR-FRET
[2] = IC50 HTRF, Cot HTRF (TR-FRET KinEASE) biochemical assay, 400 μM ATP
[3] = Homo sapiens, Monocyte, read-out: EC50 TNF, LPS-stimulated human monocytes, TNFα
[4] = IC50 HTRF, Cot HTRF (TR-FRET) biochemical assay
[5] = read-out: IC50 HTRF, Cot HTRF (TR-FRET) biochemical assay

Sequence of Human Cot (P41279 30-397): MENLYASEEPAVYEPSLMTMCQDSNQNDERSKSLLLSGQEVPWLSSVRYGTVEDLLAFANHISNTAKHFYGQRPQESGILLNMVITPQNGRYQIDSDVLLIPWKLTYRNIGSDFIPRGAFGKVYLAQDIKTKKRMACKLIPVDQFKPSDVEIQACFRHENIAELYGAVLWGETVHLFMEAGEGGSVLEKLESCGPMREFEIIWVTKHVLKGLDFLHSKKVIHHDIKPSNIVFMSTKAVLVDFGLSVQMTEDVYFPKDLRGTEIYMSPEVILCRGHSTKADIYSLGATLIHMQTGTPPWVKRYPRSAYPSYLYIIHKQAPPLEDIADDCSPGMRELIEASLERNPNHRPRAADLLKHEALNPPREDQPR

| SMILES | pEC50 (TNFα; [3]) | pIC50 (Human Cot; [4]) | also measured |
| --- | --- | --- | --- |
| CC(C)(C)CNc1c(C#N)cnc2c(C#N)cc(N[C@H](c3cn(C4(C(F)F)CC4)nn3)c3cccc4c(=O)[nH]ccc34)cc12 [Example 876, (S)-6-(((1-(1-(difluoromethyl)cyclopropyl)-1H-1,2,3-triazol-4-yl)(1-oxo-1,2-dihydroisoquinolin-5-yl)methyl)amino)-4-(neopentylamino)quinoline-3,8-dicarbonitrile] | – | – | pEC50 (TNFα; [1]): 6.41; pIC50 (Human Cot; [2]): 8.70 |
| Cc1ncsc1[C@H](Nc1cc(Cl)c2ncc(C#N)c(Nc3cccc(Cl)c3F)c2c1)c1c[nH]nn1 [Example 251, (R)-8-chloro-4-((3-chloro-2-fluorophenyl)amino)-6-(((4-methylthiazol-5-yl)(1H-1,2,3-triazol-4-yl)methyl)amino)quinoline-3-carbonitrile] | 6.46 | 8.30 | – |
| Cn1cncc1[C@H](Nc1cc(Cl)c2ncc(C#N)c(Nc3ccc(F)c(Cl)c3)c2c1)c1cn(C2CCN(C(C)(C)C)CC2)nn1 [Example 342, (S)-6-(((1-(1-(tert-butyl)piperidin-4-yl)-1H-1,2,3-triazol-4-yl)(1-methyl-1H-imidazol-5-yl)methyl)amino)-8-chloro-4-((3-chloro-4-fluorophenyl)-amino)quinoline-3-carbonitrile] | 5.22 | 7.42 | – |
| CC(C)(CNc1c(C#N)cnc2c(Cl)cc(N[C@H](c3cn(C45CC(C4)C5)nn3)c3ccc(F)c4ncccc34)cc12)C(F)(F)F [Example 917, (S)-6-(((1-(bicyclo[1.1.1]pentan-1-yl)-1H-1,2,3-triazol-4-yl)(8-fluoroquinolin-5-yl)methyl)amino)-8-chloro-4-((3,3,3-trifluoro-2,2-dimethylpropyl)amino)quinoline-3-carbonitrile] | – | – | pEC50 (TNFα; [1]): 7.51; pIC50 (Human Cot; [2]): 8.52 |
| Cc1nc2cccc([C@H](Nc3cc(C#N)c4ncc(C#N)c(NCC(C)(C)C)c4c3)c3cn(C4CC4)nn3)c2s1 [Example 427, (S)-6-(((1-cyclopropyl-1H-1,2,3-triazol-4-yl)(2-methylbenzo[d]thiazol-7-yl)methyl)amino)-4-(neopentylamino)-quinoline-3,8-dicarbonitrile] | 7.39 | 8.70 | – |
| N#Cc1cnc2c(Cl)cc(N[C@@H](c3cccnc3)c3cn(-c4ccccc4)nn3)cc2c1Nc1cnc(F)c(F)c1 [Example 160, (S)-8-chloro-4-((5,6-difluoropyridin-3-yl)amino)-6-(((1-phenyl-1H-1,2,3-triazol-4-yl)(pyridin-3-yl)methyl)amino)quinoline-3-carbonitrile] | 6.32 | 7.96 | – |
| Cc1nc(Cl)ccc1[C@H](Nc1cc(Cl)c2ncc(C#N)c(Nc3ccc(F)c(Cl)c3)c2c1)c1cn(C2CCN(C(C)(C)C)CC2)nn1 [Example 318] | – | – | pEC50 (TNFα; read-out: EC50 TNF, LPS-stimulated human monocytes, TNFα): 6.57; pIC50 (Human Cot; [5]): 8.10 |
| Cc1nc(F)ccc1[C@H](Nc1cc(Cl)c2ncc(C#N)c(NC3CCCCC3)c2c1)c1cn(C2(C(F)(F)F)CC2)nn1 [Example 588, (S)-8-chloro-4-(cyclohexylamino)-6-(((6-fluoro-2-methylpyridin-3-yl)(1-(1-(trifluoromethyl)cyclopropyl)-1H-1,2,3-triazol-4-yl)methyl)amino)quinoline-3-carbonitrile] | 6.20 | 7.26 | – |
| Cc1nc(F)ccc1[C@H](Nc1cc(Cl)c2ncc(C#N)c(NCC(C)(C)C)c2c1)c1nnn([C@@H](C)CF)c1F [Example 952, 8-chloro-6-(((S)-(5-fluoro-1-((S)-1-fluoropropan-2-yl)-1H-1,2,3-triazol-4-yl)(6-fluoro-2-methylpyridin-3-yl)methyl)amino)-4-(neopentylamino)quinoline-3-carbonitrile] | – | – | pEC50 (TNFα; [1]): 7.44; pIC50 (Human Cot; [2]): 8.40 |
| Cc1nc(F)ccc1[C@H](Nc1cc(Cl)c2ncc(C#N)c(NCC34CC(C3)C4)c2c1)c1cn(C2(C(F)(F)F)CC2)nn1 [Example 740, (S)-4-((bicyclo[1.1.1]pentan-1-ylmethyl)amino)-8-chloro-6-(((6-fluoro-2-methylpyridin-3-yl)(1-(1-(trifluoromethyl)cyclopropyl)-1H-1,2,3-triazol-4-yl)methyl)amino)quinoline-3-carbonitrile] | 6.51 | 7.35 | – |
| [2H][C@](Nc1cc(Cl)c2ncc(C#N)c(NCC(C)(C)C)c2c1)(c1cccnc1)c1cn(C2CC2)nn1 [Example 141, (S)-8-chloro-6-(((1-cyclopropyl-1H-1,2,3-triazol-4-yl)(pyridin-3-yl)methyl-d)amino)-4-(neopentylamino)quinoline-3-carbonitrile] | 6.92 | 8.70 | – |
| CC(C)(C)CNc1c(C#N)cnc2c(C#N)cc(N[C@H](c3cn([C@@H]4C[C@@H]4F)nn3)c3cccc4ncccc34)cc12 [Example 899, 6-(((S)-(1-((1R,2S)-2-fluorocyclopropyl)-1H-1,2,3-triazol-4-yl)(quinolin-5-yl)methyl)amino)-4-(neopentylamino)quinoline-3,8-dicarbonitrile] | – | – | pEC50 (TNFα; [1]): 7.54; pIC50 (Human Cot; [2]): 8.70 |
| [2H][C@](Nc1cc(C#N)c2ncc(C#N)c(NCC(C)(C)C)c2c1)(c1ccc(F)nc1)c1cn(C2CC2)nn1 [Example 116, (S)-6-(((1-cyclopropyl-1H-1,2,3-triazol-4-yl)(6-fluoropyridin-3-yl)methyl-d)amino)-4-(neopentylamino)quinoline-3,8-dicarbonitrile] | 6.84 | 8.52 | – |
| Cc1nc(F)ccc1[C@H](Nc1cc(C#N)c2ncc(C#N)c(NCC(C)(C)C)c2c1)c1cn(C2CC2)nn1 [Example 454, (S)-6-(((1-cyclopropyl-1H-1,2,3-triazol-4-yl)(6-fluoro-2-methylpyridin-3-yl)methyl)amino)-4-(neopentylamino)-quinoline-3,8-dicarbonitrile] | 7.49 | 8.70 | – |
| CC[C@@H](Nc1c(C#N)cnc2c(Cl)cc(N[C@H](c3cn(C4CCN(C(C)(C)C)CC4)nn3)c3cccnc3C)cc12)c1ccccc1 [Example 221, 6-(((S)-(1-(1-(tert-butyl)piperidin-4-yl)-1H-1,2,3-triazol-4-yl)(2-methylpyridin-3-yl)methyl)amino)-8-chloro-4-(((R)-1-phenylpropyl)amino)quinoline-3-carbonitrile] | 7.55 | 8.70 | – |
| CC(C)(C)CNc1c(C#N)cnc2c(Cl)cc(N[C@H](c3cn(C4(C(F)(F)F)CC4)nn3)c3cccc4nccnc34)cc12 [Example 734, (S)-8-chloro-4-(neopentylamino)-6-((quinoxalin-5-yl(1-(1-(trifluoromethyl)-cyclopropyl)-1H-1,2,3-triazol-4-yl)methyl)amino)quinoline-3-carbonitrile] | 6.50 | 7.39 | – |
| Cn1cnc(C(Nc2cc(Cl)c3ncc(C#N)c(Nc4ccc(F)c(Cl)c4)c3c2)c2cccnc2)c1 (stereo not shown) [Example 403, 8-chloro-4-((3-chloro-4-fluoro-phenyl)amino)-6-(((1-methyl-1H-imidazol-4-yl)(pyridin-3-yl)methyl)-amino)quinoline-3-carbonitrile] | 6.54 | – | pIC50 (Human Cot; [5]): 8.05 |
| Cc1nc(F)ccc1[C@H](Nc1cc(Cl)c2ncc(C#N)c(NCC(C)(C)C)c2c1)c1cn(C2(C#N)CCC2)nn1 [Example 479, (S)-8-chloro-6-(((1-(1-cyanocyclobutyl)-1H-1,2,3-triazol-4-yl)(6-fluoro-2-methylpyridin-3-yl)methyl)amino)-4-(neopentylamino)quinoline-3-carbonitrile] | 7.11 | 8.30 | – |
| Cn1ccc2c([C@H](Nc3cc(C#N)c4ncc(C#N)c(NCC(C)(C)C(F)(F)F)c4c3)c3cn(C45CC(C4)C5)nn3)cccc2c1=O [Example 883, (S)-6-(((1-(bicyclo[1.1.1]pentan-1-yl)-1H-1,2,3-triazol-4-yl)(2-methyl-1-oxo-1,2-dihydroisoquinolin-5-yl)methyl)amino)-4-((3,3,3-trifluoro-2,2-dimethylpropyl)amino)quinoline-3,8-dicarbonitrile] | – | – | pEC50 (TNFα; [1]): 7.89; pIC50 (Human Cot; [2]): 9.00 |
| Cc1nc(F)ccc1[C@H](Nc1cc(C#N)c2ncc(C#N)c(NCC(C)(C)C(F)(F)F)c2c1)c1cn(C2(C3CC3)CC2)nn1 [Example 867, (S)-6-(((4-(1-(1,1-bi(cyclopropan)]-1-yl)-1H-1,2,3-triazol-4-yl)(6-fluoro-2-methylpyridin-3-yl)methyl)amino)-4-((3,3,3-trifluoro-2,2-dimethylpropyl)amino)quinoline-3,8-dicarbonitrile] | – | – | pEC50 (TNFα; read-out: EC50 TNF, LPS-stimulated human monocytes, TNFα TR-FRET): 7.57; pIC50 (Human Cot; read-out: IC50 HTRF, Cot HTRF (TR-FRET KinEASE) biochemical assay, 400 μM ATP): 8.52 |
| CC(C)(C)CNc1c(C#N)cnc2c(Cl)cc(N[C@H](c3cn(C4CCN(C(C)(C)C)CC4)nn3)c3cccc4ncsc34)cc12 [Example 419, (S)-6-((benzo[d]thiazol-7-yl(1-(1-(tert-butyl)piperidin-4-yl)-1H-1,2,3-triazol-4-yl)methyl)amino)-8-chloro-4-(neopentylamino)quinoline-3-carbonitrile] | 7.31 | 8.52 | – |
| Cc1nc(Cl)ccc1[C@H](Nc1cc(Cl)c2ncc(C#N)c(NCC(C)(C)C)c2c1)c1cn(C2(C(F)F)CC2)nn1 [Example 718, (S)-8-chloro-6-(((6-chloro-2-methylpyridin-3-yl)(1-(1-(difluoromethyl)cyclopropyl)-1H-1,2,3-triazol-4-yl)methyl)amino)-4-(neopentylamino)quinoline-3-carbonitrile] | 6.95 | 8.05 | – |
| Cc1nc(F)ccc1[C@H](Nc1cc(Cl)c2ncc(C#N)c(NCC(C)(C)C)c2c1)c1cn(C2(C(F)(F)F)CC2)nn1 [Example 432, (S)-8-chloro-6-(((6-fluoro-2-methyl-pyridin-3-yl)(1-(1-(trifluoromethyl)-cyclopropyl)-1H-1,2,3-triazol-4-yl)methyl)amino)-4-(neopentylamino)-quinoline-3-carbonitrile] | 7.05 | 8.22 | – |
